What all share (type): biochemical
The target in one experiment is PIM-1 (Homo sapiens, UniProt P11309). In words: Enzyme PIM-1 Assay ([33P]ATP incorporation into PIM2tide, filter plate). The following applies: averaged IC50; 35 μM ATP, 7.5 μM PIM2tide, 0.25 nM PIM-1, 60 min at 22° C. The method in brief: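 Ten-point, 3-fold dilution series (10 μM top, 2% DMSO final) tested for inhibition of 33P transfer from 35 μM ATP to 7.5 μM PIM2tide by 0.25 nM PIM-1. Reaction 60 min, 22 °C, pH 7.4 MOPS/MgCl2 buffer; phosphocellulose capture, scintillation counting, IC50 where fitted POC equals 50.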
PIM-1, sequence (P11309 whole entry, species assumed): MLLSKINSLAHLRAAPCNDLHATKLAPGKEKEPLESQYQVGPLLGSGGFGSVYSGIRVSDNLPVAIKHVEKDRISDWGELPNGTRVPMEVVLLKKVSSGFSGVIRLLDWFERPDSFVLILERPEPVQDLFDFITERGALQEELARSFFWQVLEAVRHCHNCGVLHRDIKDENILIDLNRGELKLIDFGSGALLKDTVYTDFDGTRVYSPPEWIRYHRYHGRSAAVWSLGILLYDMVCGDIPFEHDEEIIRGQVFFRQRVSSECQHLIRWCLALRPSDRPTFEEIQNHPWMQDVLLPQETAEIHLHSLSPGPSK

The target of experiment [1] is T1, GST-tagged recombinant full-length human Pim-2 (Homo sapiens, UniProt Q9P1W9).
T1 construct: GST-tagged recombinant full-length human Pim-2; GST
T1 sequence (Q9P1W9 whole entry): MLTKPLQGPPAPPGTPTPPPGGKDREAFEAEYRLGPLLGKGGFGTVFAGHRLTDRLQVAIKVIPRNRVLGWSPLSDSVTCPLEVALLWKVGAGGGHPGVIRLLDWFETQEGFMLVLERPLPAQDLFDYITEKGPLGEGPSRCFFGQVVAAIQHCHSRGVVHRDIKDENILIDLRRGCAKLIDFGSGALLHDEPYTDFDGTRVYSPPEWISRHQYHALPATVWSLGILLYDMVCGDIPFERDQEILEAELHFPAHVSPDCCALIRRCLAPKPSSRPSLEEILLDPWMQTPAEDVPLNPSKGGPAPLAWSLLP
Kind of experiment: PIM-2 Assay (as Example A). As to conditions: averaged IC50; 4 μM ATP, 1.0 μM PIM2tide, 1.5 nM Pim-2. The method in brief: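 IC50 was derived by 4-parameter logistic fitting of percent-of-control data over a 10-point, 3-fold series (highest 10 μM, 2% DMSO). Reactions held 1.5 nM GST-Pim-2 (full-length, human), 4 μM [γ-33P]ATP and 1.0 μM PIM2tide for 60 min at 22 °C, pH 7.4; 33P-peptide captured on P81 filters.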

The next experiment deals with recombinant rat PIM-3 (Rattus norvegicus, UniProt O70444). Kind of experiment: PIM-3 Assay (as Example A). The following applies: averaged IC50; 30 μM ATP, 3.75 μM PIM2tide, 0.5 nM PIM-3. The method in brief:
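33P incorporation from 30 μM [γ-33P]ATP into 3.75 μM PIM2tide by 0.5 nM rat PIM-3, 60 min at 22 °C in pH 7.4 MOPS buffer, read by P81 filter capture and scintillation counting. Compounds tested in 3-fold dilutions up to 10 μM final, 2% DMSO; percent-of-control data fitted by 4-parameter logistic for IC50.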

Counter-ions that a name gives are not always drawn.

With `CC(C)(C)c1cccc2ccc(-c3nnc4ccc([C@@H](N5C[C@@H](O)[C@H](O)C5)C(F)(F)F)cn34)nc12` [Example 74, (3R,4R)-1-((R)-1-(3-(8-tert-butylquinolin-2-yl)-[1,2,4]triazolo[4,3-a]pyridin-6-yl)-2,2,2-trifluoroethyl)pyrrolidine-3,4-diol], the 50% inhibitory concentration (IC50) (as a rule, the midpoint of a concentration-inhibition curve) at PIM-1 came to 0.09 nM; in experiment [1] it was 41 nM; on recombinant rat PIM-3 it was 6.7 nM.

For `COc1cc2nc(-c3nnc4ccc([C@H](N5CC[C@H](N)C5)C(F)(F)F)cn34)ccc2cc1F` [Example 136, (S)-1-((S)-2,2,2-trifluoro-1-(3-(6-fluoro-7-methoxyquinolin-2-yl)-[1,2,4]triazolo[4,3-a]pyridin-6-yl)ethyl)pyrrolidin-3-amine hydrochloride], the IC50 came to 0.87 nM against PIM-1, 96 nM in experiment [1] and 5 nM on recombinant rat PIM-3.

As for `COC[C@H](C)Oc1cccc2ccc(-c3nnc4ccc([C@@H](N5CC[C@H](N)C5)C(F)(F)F)cn34)nc12` [Example 141, (S)-1-((R)-2,2,2-trifluoro-1-(3-(8-((S)-1-methoxypropan-2-yloxy)quinolin-2-yl)-[1,2,4]triazolo[4,3-a]pyridin-6-yl)ethyl)pyrrolidin-3-amine dihydrochloride], the IC50 against PIM-1 is 0.2 nM; in experiment [1], 90 nM; at recombinant rat PIM-3, 0.9 nM.

Turning to `CC1(NC(=O)c2ccc3ccc(-c4nnc5ccc([C@@H](N6CC[C@H](N)C6)C(F)(F)F)cn45)nc3c2)CC1` [Example 53, 2-(6-((R)-1-((S)-3-aminopyrrolidin-1-yl)-2,2,2-trifluoroethyl)-[1,2,4]triazolo[4,3-a]pyridin-3-yl)-N-(1-methylcyclopropyl)quinoline-7-carboxamide dihydrochloride], the results for the IC50 (against PIM-1; in experiment [1]; on recombinant rat PIM-3) were 0.24 nM, 27 nM and 0.3 nM, respectively.

Take `CSCCOc1ccc2ccc(-c3nnc4ccc([C@@H](N5CC[C@H](N)C5)C(F)(F)F)cn34)nc2c1` [Example 281, (S)-1-((R)-2,2,2-trifluoro-1-(3-(7-(2-(methylthio)ethoxy)quinolin-2-yl)-[1,2,4]triazolo[4,3-a]pyridin-6-yl)ethyl)pyrrolidin-3-amine hydrochloride]: the IC50 was 0.26 nM at PIM-1, 242 nM in experiment [1] and 0.7 nM on recombinant rat PIM-3.

Take `CC(C)(O)COc1ccc2ccc(-c3nnc4ccc([C@@H](N5CC[C@H](N)C5)C(F)(F)F)cn34)nc2c1` [Example 278, 1-(2-(6-((R)-1-((S)-3-aminopyrrolidin-1-yl)-2,2,2-trifluoroethyl)-[1,2,4]triazolo[4,3-a]pyridin-3-yl)quinolin-7-yloxy)-2-methylpropan-2-ol dihydrochloride]: the IC50 against PIM-1 is 0.23 nM; in experiment [1] it was 180 nM; on recombinant rat PIM-3, 0.4 nM.

With `N#CCOc1cccc2ccc(-c3nnc4ccc([C@@H](N5CC[C@H](N)C5)C(F)(F)F)cn34)nc12` [Example 270, 2-(2-(6-((R)-1-((S)-3-aminopyrrolidin-1-yl)-2,2,2-trifluoroethyl)-[1,2,4]triazolo[4,3-a]pyridin-3-yl)quinolin-8-yloxy)acetonitrile formate], the values for the IC50 (at PIM-1; in experiment [1]; on recombinant rat PIM-3) were 0.38 nM, 434 nM and 1.9 nM, respectively.

On to `Cn1cc(-c2ccc3ccc(-c4nnc5ccc([C@H](N6CC[C@](C)(N)C6)C(F)(F)F)cn45)nc3c2)cn1` [Example 222, (S)-3-methyl-1-((S)-2,2,2-trifluoro-1-(3-(7-(1-methyl-1H-pyrazol-4-yl)quinolin-2-yl)-[1,2,4]triazolo[4,3-a]pyridin-6-yl)ethyl)pyrrolidin-3-amine dihydrochloride], for which the concentration for half-maximal inhibition (IC50) on PIM-1 amounted to 0.22 nM; in experiment [1], 77 nM; at recombinant rat PIM-3, 0.2 nM.

With `N[C@H]1CCN(C(c2ccc3nnc(-c4ccc5ccc(C(F)(F)F)cc5n4)n3c2)C(F)(F)F)C1` (stereo partly drawn) [Example 29, (3S)-1-(2,2,2-trifluoro-1-(3-(7-(trifluoromethyl)quinolin-2-yl)-[1,2,4]triazolo[4,3-a]pyridin-6-yl)ethyl)pyrrolidin-3-amine dihydrochloride], the IC50 was 5.12 nM on PIM-1, greater than 1000 nM in experiment [1] and 47 nM on recombinant rat PIM-3.

As to `Cc1nn(C)cc1-c1cc2nc(-c3nnc4ccc([C@@H](N5CC[C@H](N)C5)C(F)(F)F)cn34)ccc2cc1F` [Example 205, (3 S)-1-((1R)-1-(3-(7-(1,3-dimethyl-1H-pyrazol-4-yl)-6-fluoroquinolin-2-yl)-[1,2,4]triazolo[4,3-a]pyridin-6-yl)-2,2,2-trifluoroethyl)pyrrolidin-3-amine dihydrochloride], the values for the IC50 (on PIM-1; in experiment [1]; at recombinant rat PIM-3) were 0.14 nM, 244 nM and 0.2 nM, respectively.

Regarding `CCOc1cc2nc(-c3nnc4ccc([C@@H](N5CC[C@@](C)(N)C5)C(F)(F)F)cn34)ccc2cc1F` [Example 293, (R)-1-((R)-1-(3-(7-ethoxy-6-fluoroquinolin-2-yl)-[1,2,4]triazolo[4,3-a]pyridin-6-yl)-2,2,2-trifluoroethyl)-3-methylpyrrolidin-3-amine hydrochloride], the IC50 is 0.4 nM against PIM-1, 468 nM in experiment [1] and 1.1 nM at recombinant rat PIM-3.

In the case of `CC(C)[C@H](N)C(=O)OCCOc1cc2nc(-c3nnc4ccc([C@@H](N5CC[C@H](N)C5)C(F)(F)F)cn34)ccc2cc1F` [Example 290, (S)-2-(2-(6-((R)-1-((S)-3-aminopyrrolidin-1-yl)-2,2,2-trifluoroethyl)-[1,2,4]triazolo[4,3-a]pyridin-3-yl)-6-fluoroquinolin-7-yloxy)ethyl 2-amino-3-methylbutanoate], the IC50 at PIM-1 was 29.7 nM; in experiment [1] it was greater than 1000 nM; at recombinant rat PIM-3, greater than 100 nM.

As for `CC(C)(C)C(=O)Nc1ccc2ccc(-c3nnc4ccc([C@@H](N5CC[C@H](N)C5)C(F)(F)F)cn34)nc2c1` [Example 71, N-(2-(6-((R)-1-((S)-3-aminopyrrolidin-1-yl)-2,2,2-trifluoroethyl)-[1,2,4]triazolo[4,3-a]pyridin-3-yl)quinolin-7-yl)pivalamide], the IC50 was 0.2 nM against PIM-1, greater than 100 nM in experiment [1] and 0.3 nM on recombinant rat PIM-3.

With `CC(C)Oc1c(C#N)ccc2ccc(-c3nnc4ccc([C@@H](N5CC[C@H](N)C5)C(F)(F)F)cn34)nc12` [Example 75, 2-(6-((R)-1-((S)-3-aminopyrrolidin-1-yl)-2,2,2-trifluoroethyl)-[1,2,4]triazolo[4,3-a]pyridin-3-yl)-8-isopropoxyquinoline-7-carbonitrile dihydrochloride], the IC50 was 1.84 nM at PIM-1, greater than 100 nM in experiment [1] and 18 nM at recombinant rat PIM-3.

For the compound `CCOc1ccc2ccc(-c3nnc4ccc([C@@H](N5CC[C@H](N)C5)C(F)(F)F)cn34)nc2c1` [Example 255, (S)-1-((R)-1-(3-(7-ethoxyquinolin-2-yl)-[1,2,4]triazolo[4,3-a]pyridin-6-yl)-2,2,2-trifluoroethyl)pyrrolidin-3-amine dihydrochloride], the IC50 at PIM-1 amounted to 0.24 nM; in experiment [1] it was 284 nM; on recombinant rat PIM-3, 0.6 nM.

Turning to `COc1cc(F)cc2ccc(-c3nnc4ccc([C@@H](N5CC[C@](C)(N)C5)C(F)(F)F)cn34)nc12` [Example 248, (S)-3-methyl-1-((R)-2,2,2-trifluoro-1-(3-(6-fluoro-8-methoxyquinolin-2-yl)-[1,2,4]triazolo[4,3-a]pyridin-6-yl)ethyl)pyrrolidin-3-amine dihydrochloride], the IC50 is 1.17 nM on PIM-1, greater than 1000 nM in experiment [1] and 8.1 nM at recombinant rat PIM-3.

Regarding `COCCCOc1ccc2ccc(-c3nnc4ccc([C@@H](N5CC[C@H](N)C5)C(F)(F)F)cn34)nc2c1` [Example 275, (S)-1-((R)-2,2,2-trifluoro-1-(3-(7-(3-methoxypropoxy)quinolin-2-yl)-[1,2,4]triazolo[4,3-a]pyridin-6-yl)ethyl)pyrrolidin-3-amine dihydrochloride], the IC50 at PIM-1 was found to be 0.2 nM; in experiment [1], 376 nM; on recombinant rat PIM-3, 0.7 nM.

As for `N[C@H]1CCN([C@H](c2ccc3nnc(-c4ccc5cc(F)c(OCCO)cc5n4)n3c2)C(F)(F)F)C1` [Example 123, 2-(2-(6-((R)-1-((S)-3-aminopyrrolidin-1-yl)-2,2,2-trifluoroethyl)-[1,2,4]triazolo[4,3-a]pyridin-3-yl)-6-fluoroquinolin-7-yloxy)ethanol hydrochloride], the results for the IC50 (against PIM-1; in experiment [1]; at recombinant rat PIM-3) were 0.2 nM, 73 nM and 0.4 nM, respectively.

For the compound `CCOc1cc2nc(-c3nnc4ccc([C@@H](N5C[C@@H](N)[C@H](OC)C5)C(F)(F)F)cn34)ccc2cc1F` [Example 299, (3R,4R)-1-((R)-1-(3-(7-ethoxy-6-fluoroquinolin-2-yl)-[1,2,4]triazolo[4,3-a]pyridin-6-yl)-2,2,2-trifluoroethyl)-4-methoxypyrrolidin-3-amine dihydrochloride], the figures for the concentration for half-maximal inhibition (IC50) (on PIM-1; in experiment [1]; on recombinant rat PIM-3) were 0.55 nM, 695 nM and 1.6 nM, respectively.

(Values after patent publication US8889704B2 (Array BioPharma Inc., priority 2011, dated 2014).)
